Numbers after ± are expanded uncertainties.
How the values were obtained:
[1] = for mass density: 101.33 kPa
[2] = refractive index (Na D-line) (dimensionless); details: 101.33 kPa, Liquid, Standard Abbe refractometry

Compound	mass density ([1]; 293.15 K, Liquid) [kg/m3]	refractive index ([2]; 293.15 K)	mass density ([1]; 298.15 K, Liquid) [kg/m3]	refractive index ([2]; 298.15 K)	also measured
CN(C)C=O [dimethylformamide]	948.7 ± 1.6	1.4305 ± 0.0008			vapor or sublimation pressure ([1]; 424.15 K, Liquid): 94.95 ± 5 kPa
Brc1ccccc1 [bromobenzene]	1488.2 ± 2.8	1.5571 ± 0.0008			vapor or sublimation pressure ([1]; 426.85 K, Liquid): 94.95 ± 5 kPa
Cc1ccccc1O [2-methylphenol]			1046 ± 1.8	1.5467 ± 0.0008	vapor or sublimation pressure ([1]; 463.55 K, Liquid): 94.95 ± 5 kPa
Cc1cccc(O)c1 [3-methylphenol]			1030 ± 1.8	1.5395 ± 0.0008	vapor or sublimation pressure ([1]; 473.55 K, Liquid): 94.95 ± 5 kPa
O=[N+]([O-])c1ccccc1 [nitrobenzene]			1198 ± 2.2	1.55 ± 0.0008	vapor or sublimation pressure ([1]; 481.15 K, Liquid): 94.95 ± 5 kPa
Cc1ccc(O)cc1 [4-methylphenol]				1.5391 ± 0.0008	mass density ([1]; 298.15 K, Crystal): 1154 ± 2.1 kg/m3; vapor or sublimation pressure ([1]; 475.35 K, Liquid): 94.95 ± 5 kPa
